Measurements taken from the supplement of paper PMC11451515.

Test system: SEM cells
Assay: cell viability relative to DMSO control; higher = less cytotoxic
Conditions: 48 h
Outline: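 Library compounds in DMSO were pin-dosed in an 11-point threefold series (47 μM to 0.79 nM) onto leukemia cells in 1536-well plates (5 μl). Plates held 500 cells/well of NOMO1 or SEM or 1000 cells/well of P12-Ichikawa, each adapted for at least four passages in each medium. Luminescence was read with CellTiter-Glo One after 48 h at 37°C. Viability means the per-plate percentage relative to DMSO wells, using cell-free wells as background.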

[1] = HPLM + 10% dialyzed FBS, 0.000781 µM
[2] = HPLM + 10% dialyzed FBS, 0.00234 µM
[3] = HPLM + 10% dialyzed FBS, 0.00702 µM
[4] = HPLM + 10% dialyzed FBS, 0.0211 µM
[5] = HPLM + 10% dialyzed FBS, 0.0632 µM
[6] = HPLM + 10% dialyzed FBS, 0.19 µM
[7] = HPLM + 10% dialyzed FBS, 0.569 µM
[8] = HPLM + 10% dialyzed FBS, 1.71 µM
[9] = HPLM + 10% dialyzed FBS, 5.12 µM
[10] = HPLM + 10% dialyzed FBS, 15.4 µM
[11] = HPLM + 10% dialyzed FBS, 46.1 µM
[12] = RPMI 5 mM glucose + 10% FBS, 0.000781 µM
[13] = RPMI 5 mM glucose + 10% FBS, 0.00234 µM
[14] = RPMI 5 mM glucose + 10% FBS, 0.00702 µM
[15] = RPMI 5 mM glucose + 10% FBS, 0.0211 µM
[16] = RPMI 5 mM glucose + 10% FBS, 0.0632 µM
[17] = RPMI 5 mM glucose + 10% FBS, 0.19 µM
[18] = RPMI 5 mM glucose + 10% FBS, 0.569 µM
[19] = RPMI 5 mM glucose + 10% FBS, 1.71 µM
[20] = RPMI 5 mM glucose + 10% FBS, 5.12 µM
[21] = RPMI 5 mM glucose + 10% FBS, 15.4 µM
[22] = RPMI 5 mM glucose + 10% FBS, 46.1 µM
[23] = RPMI 5 mM glucose + 10% dialyzed FBS, 0.000781 µM
[24] = RPMI 5 mM glucose + 10% dialyzed FBS, 0.00234 µM
[25] = RPMI 5 mM glucose + 10% dialyzed FBS, 0.00702 µM
[26] = RPMI 5 mM glucose + 10% dialyzed FBS, 0.0211 µM
[27] = RPMI 5 mM glucose + 10% dialyzed FBS, 0.0632 µM
[28] = RPMI 5 mM glucose + 10% dialyzed FBS, 0.19 µM
[29] = RPMI 5 mM glucose + 10% dialyzed FBS, 0.569 µM
[30] = RPMI 5 mM glucose + 10% dialyzed FBS, 1.71 µM
[31] = RPMI 5 mM glucose + 10% dialyzed FBS, 5.12 µM
[32] = RPMI 5 mM glucose + 10% dialyzed FBS, 15.4 µM
[33] = RPMI 5 mM glucose + 10% dialyzed FBS, 46.1 µM

| Structure (SMILES) | cell viability [1] [%] | cell viability [2] [%] | cell viability [3] [%] | cell viability [4] [%] | cell viability [5] [%] | cell viability [6] [%] | cell viability [7] [%] | cell viability [8] [%] | cell viability [9] [%] | cell viability [10] [%] | cell viability [11] [%] | cell viability [12] [%] | cell viability [13] [%] | cell viability [14] [%] | cell viability [15] [%] | cell viability [16] [%] | cell viability [17] [%] | cell viability [18] [%] | cell viability [19] [%] | cell viability [20] [%] | cell viability [21] [%] | cell viability [22] [%] | cell viability [23] [%] | cell viability [24] [%] | cell viability [25] [%] | cell viability [26] [%] | cell viability [27] [%] | cell viability [28] [%] | cell viability [29] [%] | cell viability [30] [%] | cell viability [31] [%] | cell viability [32] [%] | cell viability [33] [%] |
| --- | --- | --- | --- | --- | --- | --- | --- | --- | --- | --- | --- | --- | --- | --- | --- | --- | --- | --- | --- | --- | --- | --- | --- | --- | --- | --- | --- | --- | --- | --- | --- | --- | --- |
| CC1(C)O[C@@H]2C[C@H]3[C@@H]4CCC5=CC(=O)C=C[C@]5(C)[C@@]4(F)[C@@H](O)C[C@]3(C)[C@]2(C(=O)CO)O1 | 74.9 | 83.6 | 109 | 50.6 | 91.2 | 83.5 | 6.87 | 30.7 | 14.9 | 14.2 | 26.3 | 76.9 | 97 | 103 | 61.7 | 78.3 | 79.3 | 7.13 | 22.6 | 45.9 | 17.7 | 30.4 | 73.1 | 82.4 | 109 | 96.4 | 101 | 75.7 | 7.45 | 20.3 | 47.6 | 11.4 | 19.8 |
| Cc1cn2c(-c3cn[nH]c3)cnc2c(Nc2ccc(C(=O)N3CCNCC3)cc2F)n1 | 105 | 106 | 119 | 103 | 109 | 105 | 107 | 108 | 87.8 | 45.9 | 17 | 98.7 | 99.8 | 107 | 98.5 | 112 | 114 | 96.7 | 109 | 90.6 | 48.3 | 11.8 | 107 | 104 | 105 | 99.5 | 122 | 102 | 114 | 98.2 | 91.7 | 49.9 | 9.99 |
| CN(C)CCOc1cc(-c2cn[nH]c2)ccc1NC(=O)C1COc2ccccc2O1 (stereo unspecified) | 87.1 | 84.6 | 101 | 105 | 106 | 106 | 98.5 | 102 | 80.1 | 71.7 | 56.2 | 101 | 95 | 108 | 94.9 | 118 | 90.7 | 103 | 96 | 105 | 69.3 | 61.3 | 107 | 101 | 110 | 108 | 94.6 | 104 | 93.1 | 102 | 98.3 | 71.8 | 68.9 |
| CCCc1nc(C(C)(C)O)c(C(=O)O)n1Cc1ccc(-c2ccccc2-c2nn[nH]n2)cc1 | 104 | 116 | 97.3 | 112 | 119 | 116 | 58.6 | 60 | 118 | 120 | 110 | 76.4 | 88.1 | 69.3 | 76.7 | 84.5 | 76.5 | 69 | 46.8 | 79.2 | 82.6 | 62.3 | 96 | 104 | 109 | 98.5 | 104 | 109 | 90.3 | 56 | 103 | 105 | 103 |
| OC1=CC=C(C=C1)\C2=C\OC3=C(C=CC(=C3)O)C2=O | 102 | 96.6 | 103 | 109 | 114 | 102 | 104 | 102 | 108 | 101 | 94.5 | 100 | 89.9 | 109 | 104 | 107 | 96.5 | 99.4 | 104 | 112 | 96.7 | 104 | 96.7 | 97.1 | 109 | 118 | 101 | 101 | 107 | 112 | 110 | 101 | 104 |
| NC(=O)c1cnc(N[C@@H]2CCCC[C@@H]2N)nc1Nc1cccc(-n2nccn2)c1 | 105 | 103 | 112 | 111 | 130 | 120 | 110 | 123 | 96.5 | 44.3 | 11.6 | 84.8 | 101 | 125 | 135 | 142 | 103 | 125 | 123 | 107 | 40.3 | 10.7 | 122 | 120 | 122 | 146 | 162 | 131 | 148 | 129 | 124 | 58.3 | 34.4 |
| CC(C)[C@@H](N(CCCN)C(=O)C1=CC=C(C)C=C1)C/2=N/C3=CC(=CC=C3C(=O)N2CC4=CC=CC=C4)Cl | 84.5 | 21 | 20.5 | 19.5 | 16 | 20.4 | 19.5 | 20.2 | 21.9 | 21.2 | 21.9 | 103 | 16.5 | 14.8 | 14 | 15.9 | 15 | 12.3 | 13.7 | 16.8 | 16.2 | 11.6 | 80 | 19.8 | 16.2 | 15.7 | 16.4 | 14.4 | 17.5 | 14.8 | 16.4 | 17.2 | 13.2 |
| CC(N[C@H]1C[C@@H]1c1ccccc1)c1ccc2c(c1)OCCO2 (stereo partly specified) | 111 | 135 | 116 | 122 | 110 | 122 | 126 | 126 | 141 | 116 | 109 | 99.3 | 95.1 | 94.7 | 97.7 | 107 | 100 | 108 | 110 | 107 | 98.4 | 93.5 | 121 | 123 | 100 | 121 | 110 | 134 | 138 | 111 | 119 | 119 | 92.6 |
| CN1[C@@H]2CC(OC(=O)[C@@H](CO)c3ccccc3)C[C@H]1[C@H]1O[C@H]12 (stereo partly specified) | 85.3 | 88.7 | 91 | 84.7 | 93.5 | 106 | 102 | 110 | 108 | 102 | 98 | 80.9 | 82.9 | 80.7 | 85 | 90.6 | 113 | 96.2 | 106 | 89.2 | 97 | 97.9 | 90.2 | 88.8 | 105 | 86.3 | 96.3 | 105 | 117 | 114 | 101 | 113 | 108 |
| CC1(C)Cc2c(-c3ccccc3)c(-c3ccc(Cl)cc3)c(CC(=O)O)n2C1 | 116 | 124 | 116 | 129 | 126 | 106 | 124 | 91.9 | 124 | 112 | 95.1 | 116 | 120 | 129 | 122 | 110 | 96.3 | 105 | 92.8 | 110 | 101 | 90.7 | – | – | – | – | – | – | – | – | – | – | – |
| CC(C)C(C)/C=C/C(C)C1CCC2C3=CC=C4CC(O)CCC4(C)C3CCC21C (stereo unspecified) | 92.6 | 79.7 | 86.7 | 73.2 | 82 | 77.4 | 83.7 | 76.5 | 68.6 | 81.8 | 86.4 | 99.6 | 107 | 111 | 99.8 | 97.1 | 94 | 111 | 92.9 | 98.5 | 96.1 | 102 | 88 | 107 | 95.1 | 83.1 | 107 | 91.4 | 117 | 105 | 87.2 | 88.8 | 88.3 |
| CCC1(C)CC(=O)NC1=O (stereo unspecified) | 107 | 102 | 109 | 112 | 114 | 114 | 106 | 95.5 | 110 | 94.5 | 81.7 | 113 | 101 | 107 | 107 | 103 | 106 | 106 | 93.7 | 103 | 92.3 | 72.3 | 93.7 | 114 | 117 | 114 | 116 | 108 | 110 | 99.7 | 108 | 94 | 74.3 |
| CC(C)OC(=O)OCOP(=O)(CO[C@H](C)Cn1cnc2c(N)ncnc21)OCOC(=O)OC(C)C.O=C(O)C=CC(=O)O | 85 | 99.6 | 28.3 | 121 | 105 | 114 | 114 | 120 | 98.2 | 105 | 35.1 | 108 | 113 | 11.7 | 119 | 119 | 124 | 115 | 115 | 109 | 94.8 | 76.1 | 77.3 | 107 | 23.8 | 102 | 113 | 104 | 97.9 | 124 | 104 | 102 | 32.2 |
| COc1cc2c(cc1-c1c(C)noc1C)ncc1[nH]c(=O)n([C@H](C)c3ccccn3)c12 | – | – | – | – | – | – | – | – | – | – | – | 117 | 106 | 140 | 120 | 119 | 114 | 102 | 65.4 | 8.34 | 6.3 | 3.15 | 101 | 94.8 | 110 | 119 | 101 | 96.1 | 76.5 | 49.7 | 6.42 | 6.4 | 3.1 |
| Cc1ccccc1N1C(=O)c2cc([S+](N)(=O)[O-])c(Cl)cc2NC1C (stereo unspecified) | 117 | 108 | 105 | 107 | 122 | 117 | 28.7 | 102 | 112 | 107 | 103 | 142 | 120 | 117 | 109 | 118 | 126 | 22.5 | 128 | 119 | 112 | 84.4 | 125 | 103 | 89.6 | 103 | 100 | 97.5 | 26.8 | 126 | 112 | 108 | 97.2 |
| FC(F)(F)c1ccc(/C=C/c2nc(COc3ccc(CCCCn4ccnn4)cc3)co2)cc1 | 116 | 119 | 123 | 108 | 103 | 111 | 109 | 108 | 103 | 109 | 98.7 | 117 | 103 | 116 | 95.3 | 105 | 78.3 | 104 | 81 | 94.2 | 94.4 | 85.7 | 110 | 124 | 103 | 91.3 | 95.9 | 86 | 82.3 | 84.9 | 79.3 | 70.9 | 84 |
